Measurements published in patent US7473790B2 (Pfizer Inc., priority 2003, dated 2009).

Each compound was assayed against T1, HCV polymerase (Hepatitis C virus genotype 1b, UniProt P26663) (assay: HCV polymerase primer/template-directed transcription assay (32P-GTP incorporation, filter binding)). Details: recombinant HCV polymerase; 30 minutes at 30° C.; concentration giving 50% inhibition of polymerase-directed transcription; read-out: IC50.
T1 construct: 2.5 pmoles (0.15 μg) HCV polymerase protein in a final volume of 75 μL
T1 sequence (P26663 2420-3010): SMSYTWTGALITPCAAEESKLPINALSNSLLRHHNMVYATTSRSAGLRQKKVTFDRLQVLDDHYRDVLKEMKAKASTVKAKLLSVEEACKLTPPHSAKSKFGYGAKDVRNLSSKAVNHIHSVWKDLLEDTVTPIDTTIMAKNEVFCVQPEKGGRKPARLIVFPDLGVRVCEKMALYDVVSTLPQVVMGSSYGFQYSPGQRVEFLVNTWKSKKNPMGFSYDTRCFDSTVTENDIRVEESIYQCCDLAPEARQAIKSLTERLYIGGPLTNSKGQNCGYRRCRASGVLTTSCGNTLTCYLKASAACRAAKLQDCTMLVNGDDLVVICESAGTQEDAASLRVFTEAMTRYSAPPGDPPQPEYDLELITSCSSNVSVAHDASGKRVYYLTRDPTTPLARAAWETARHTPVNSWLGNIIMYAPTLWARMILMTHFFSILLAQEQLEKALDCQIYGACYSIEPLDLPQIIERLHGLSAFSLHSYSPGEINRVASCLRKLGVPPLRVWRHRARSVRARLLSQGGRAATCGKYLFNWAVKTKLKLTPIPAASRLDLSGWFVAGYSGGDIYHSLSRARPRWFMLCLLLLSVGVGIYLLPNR
Assay type: biochemical
In short: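 IC50s come from triplicate cpm, refit with an enzyme-concentration (30 nM) correction when under 200 nM. Reactions ran 30 min at 30° C in Tris pH 7.2 with MgCl2, 1 μM GTP spiked with α-32P-GTP, biotin-dG12 primer and poly(rC)300 template, with 1% DMSO. Incorporated label was collected on DE filtermats and counted.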
For `CCc1cc(O)cc(CCC2(C3CCCC3)CC(O)=C(Cc3nc4nc(C)cc(C)n4n3)C(=O)O2)c1` (centres unmarked) [A(186), 6-Cyclopentyl-3-(5,7-dimethyl-[1,2,4]triazolo[1,5-a]pyrimidin-2-ylmethyl)-6-[2-(3-ethyl-5-hydroxy-phenyl)-ethyl]-4-hydroxy-5,6-dihydro-pyran-2-one], the IC50 was 40 nM. Compound `COC(=O)c1nnc(SC2=C(O)CC(CCc3ccc(OC)c(Cl)c3)(C3CCCC3)OC2=O)n1C` (centres unmarked) [C(100), methyl 5-({6-[2-(3-chloro-4-methoxyphenyl)ethyl]-6-cyclopentyl-4-hydroxy-2-oxo-5,6-dihydro-2H-pyran-3-yl}thio)-4-methyl-4H-1,2,4-triazole-3-carboxylate] has an IC50 of 32 nM. With `CCC1(c2ccc(CCC3(C4CCCC4)CC(=O)CC(=O)O3)cc2Cl)CC(=O)CC(=O)O1` (centres unmarked) [A(30), 6-[2-(3-Chloro-4-(6-Ethyl-dihydro-pyran-2,4-dione)-phenyl)-ethyl]-6-cyclopentyl-dihydro-pyran-2,4-dione] the IC50 was 840 nM. In the case of `N#CCC(=O)c1ccc(C#CC2(C3CCCC3)CC(=O)CC(=O)O2)s1` (centres unmarked) [E(2), 3-[5-(2-Cyclopentyl-4,6-dioxo-tetrahydro-pyran-2-ylethynyl)-thiophen-2-yl]-3-oxo-propionitrile], the IC50 is reported as 8200 nM. Work on `COc1ccc(CCC2(C3CCCC3)CC(O)=C(Sc3nc4cc(Cl)ccc4n3C(C)C)C(=O)O2)cc1Cl` (centres unmarked) [C(40), 3-[(5-chloro-1-isopropyl-1H-benzimidazol-2-yl)thio]-6-[2-(3-chloro-4-methoxyphenyl)ethyl]-6-cyclopentyl-4-hydroxy-5,6-dihydro-2H-pyran-2-one] yielded an IC50 of 25 nM. `C[C@@H](NS(C)(=O)=O)c1ccc(CCC2(C3CCCC3)CC(=O)CC(=O)O2)cc1` (some centres unmarked) [A(42), N-(1-{4-[2-(2-Cyclopentyl-4,6-dioxo-tetrahydro-pyran-2-yl)-ethyl]-phenyl}-ethyl)-methanesulfonamide] showed an IC50 of 8000 nM. With `CCC(C#N)(CC)c1ccc(CCC2(C3CCCC3)CC(O)=C(Cc3nc4ncc(Cl)cn4n3)C(=O)O2)cc1F` (racemic) [A(265), 2-(4-{2-[5-(6-Chloro-[1,2,4]triazolo[1,5-a]pyrimidin-2-ylmethyl)-2-cyclopentyl-4-hydroxy-6-oxo-3,6-dihydro-2H-pyran-2-yl]-ethyl}-2-fluoro-phenyl)-2-ethyl-butyronitrile] the IC50 was 4 nM. Compound `Cc1cc(C)n2nc(CC3=C(O)CC(CCc4ccc(O)c(F)c4)(C4CCCC4)OC3=O)nc2n1` (centres unmarked) [B(105), 6-Cyclopentyl-3-(5,7-dimethyl-[1,2,4]triazolo[1,5-a]pyrimidin-2-ylmethyl)-6-[2-(3-fluoro-4-hydroxy-phenyl)-ethyl]-4-hydroxy-5,6-dihydro-pyran-2-one] has an IC50 of 46 nM. In the case of `CCc1cc(CCC2(C3CCCC3)CC(O)=C(Cc3nc4nc(C)cc(C)n4n3)C(=O)O2)ccc1OC(C)C` (centres unmarked) [B(102), 6-Cyclopentyl-3-(5,7-dimethyl-[1,2,4]triazolo[1,5-a]pyrimidin-2-ylmethyl)-6-[2-(3-ethyl-4-isopropoxy-phenyl)-ethyl]-4-hydroxy-5,6-dihydro-pyran-2-one], the IC50 is reported as 500 nM. `O=C1CC(=O)OC(CCc2ccc(-c3ccccc3)c(F)c2)(C2CCCC2)C1` (centres unmarked) [A(09), 6-Cyclopentyl-6-[2-(2-fluoro-biphenyl-4-yl)-ethyl]-dihydro-pyran-2,4-dione] was tested, and the IC50 was 5500 nM. In the case of `CCOc1ccc(CCC2(C3CCCC3)CC(O)=C(Cc3nc4nc(C)cc(C)n4n3)C(=O)O2)cc1Cl` (centres unmarked) [B(20), 6-[2-(3-Chloro-4-ethoxy-phenyl)-ethyl]-6-cyclopentyl-3-(5,7-dimethyl-[1,2,4]triazolo[1,5]pyrimidin-2-ylmethyl)-4-hydroxy-5,6-dihydro-pyran-2-one], the IC50 is reported as 4 nM. Compound `COc1ccc(CCC2(C3CCCC3)CC(O)=C(Sc3ncc4[nH]cnc4n3)C(=O)O2)cc1Cl` (centres unmarked) [C(67), 6-[2-(3-chloro-4-methoxyphenyl)ethyl]-6-cyclopentyl-4-hydroxy-3-(7H-purin-2-ylthio)-5,6-dihydro-2H-pyran-2-one] has an IC50 of 50 nM. `Cc1cc(C)n2nc(CC3=C(O)CC(CCc4ccc(OCc5c(C)noc5C)cc4)(C4CCCC4)OC3=O)nc2n1` (centres unmarked) [B(42), 6-Cyclopentyl-6-{2-[4-(3,5-dimethyl-isoxazol-4-ylmethoxy)-phenyl]-ethyl}-3-(5,7-dimethyl-[1,2,4]triazolo[1,5-a]pyrimidin-2-ylmethyl)-4-hydroxy-5,6-dihydro-pyran-2-one] gave an IC50 of 210 nM. With `CCOc1ccc(CCC2(C3CCCC3)CC(O)=C(Cc3nc4nc(C)cc(C)n4n3)C(=O)O2)cc1CC` (centres unmarked) [B(99), 6-Cyclopentyl-3-(5,7-dimethyl-[1,2,4]triazolo[1,5-a]pyrimidin-2-ylmethyl)-6-[2-(4-ethoxy-3-ethyl-phenyl)-ethyl]-4-hydroxy-5,6-dihydro-pyran-2-one] the IC50 was 350 nM. Work on `COc1ccc(CCC2(C3CCCC3)CC(=O)C(Cc3ccccc3)C(=O)O2)cc1Cl` (centres unmarked) [B(78), 3-benzyl-6-[2-(3-chloro-4-methoxyphenyl)ethyl]-6-cyclopentyldihydro-2H-pyran-2,4(3H)-dione] yielded an IC50 of 1000 nM. `O=C1CC(=O)OC(CCc2ccc(CCO)cc2)(C2CCCC2)C1` (centres unmarked) [A(79), 6-Cyclopentyl-6-{2-[4-(2-hydroxy-ethyl)-phenyl]-ethyl}-dihydro-pyran-2,4-dione] gave an IC50 of 1000 nM. `CCc1cc(CCC2(C3CCCC3)CC(=O)CC(=O)O2)ccc1N(C)S(C)(=O)=O` (centres unmarked) [A(87)] showed an IC50 of 890 nM. `COc1cccc(-c2nnc(SC3=C(O)CC(CCc4cc(Cl)c(OC)cc4OC)(C4CCCC4)OC3=O)n2C)c1` (centres unmarked) [C(79), 6-[2-(5-chloro-2,4-dimethoxyphenyl)ethyl]-6-cyclopentyl-4-hydroxy-3-{[5-(3-methoxyphenyl)-4-methyl-4H-1,2,4-triazol-3-yl]thio}-5,6-dihydro-2H-pyran-2-one] was tested, and the IC50 was 63 nM. `CC1(c2ccc(CCC3(C4CCCC4)CC(=O)CC(=O)O3)cc2)CCC(=O)O1` (centres unmarked) [A(29), 6-Cyclopentyl-6-{2-[4-(2-methyl-5-oxo-tetrahydro-furan-2-yl)-phenyl]-ethyl}-dihydro-pyran-2,4-dione] showed an IC50 of 1500 nM. `CCc1cc(CCC2(C3CCCC3)CC(=O)CC(=O)O2)cc(F)c1O` (centres unmarked) [A(124), 6-Cyclopentyl-6-[2-(3-ethyl-5-fluoro-4-hydroxy-phenyl)-ethyl]-dihydro-pyran-2,4-dione] showed an IC50 of 350 nM. `Cc1cc(C)n2nc(CC3=C(O)CC(CCc4ccc(OC(C)C)c(F)c4)(C4CCCC4)OC3=O)nc2n1` (centres unmarked) [B(18)] gave an IC50 of 21 nM. `Cc1cc(C)n2nc(CC3=C(O)CC(CCc4ccc([C@@H](C)O)c(F)c4)(C4CCCC4)OC3=O)nc2n1` (stereo in doubt) [B(114), 6-Cyclopentyl-3-(5,7-dimethyl-[1,2,4]triazolo[1,5-a]pyrimidin-2-ylmethyl)-6-{2-[3-fluoro-4-(1-hydroxy-ethyl)-phenyl]-ethyl}-4-hydroxy-5,6-dihydro-pyran-2-one] gave an IC50 of 16 nM. `COc1ccc(CCC2(C3CCCC3)CC(O)=C(Sc3nc4cc(C)ccc4[nH]3)C(=O)O2)cc1Cl` (centres unmarked) [C(53), 6-[2-(3-chloro-4-methoxyphenyl)ethyl]-6-cyclopentyl-4-hydroxy-3-[(5-methyl-1H-benzimidazol-2-yl)thio]-5,6-dihydro-2H-pyran-2-one] gave an IC50 of 67 nM. In the case of `CCc1nc(CC2=C(O)CC(CCc3ccc(O)c(CC)c3)(C3CCCC3)OC2=O)c(C)[nH]1` (centres unmarked) [B(111), 6-Cyclopentyl-6-[2-(3-ethyl-4-hydroxy-phenyl)-ethyl]-3-(2-ethyl-5-methyl-1H-imidazol-4-ylmethyl)-4-hydroxy-5,6-dihydro-pyran-2-one], the IC50 is reported as 321 nM. In the case of `CC(C)(C#N)c1ccc(CCC2(C3CCCC3)CC(O)=C(Cc3cn4cccnc4n3)C(=O)O2)cc1F` (centres unmarked) [A(221), 2-(4-{2-[2-cyclopentyl-4-hydroxy-5-(imidazo[1,2-a]pyrimidin-2-ylmethyl)-6-oxo-3,6-dihydro-2H-pyran-2-yl]ethyl}-2-fluorophenyl)-2-methylpropanenitrile], the IC50 is reported as 14 nM. `Cc1cc(C)n2nc(CC3=C(O)CC(CCc4ccc(O)c(Cl)c4)(C4CCCC4)OC3=O)nc2n1` (centres unmarked) [B(95), 6-[2-(3-Chloro-4-hydroxy-phenyl)-ethyl]-6-cyclopentyl-3-(5,7-dimethyl-[1,2,4]triazolo[1,5-a]pyrimidin-2-ylmethyl)-4-hydroxy-5,6-dihydro-pyran-2-one] showed an IC50 of 13 nM. In the case of `CCc1cc(CCC2(C3CCCC3)CC(O)=C(Cc3nc4nc(C)cc(C)n4n3)C(=O)O2)ccc1OCCNC(C)=O` (centres unmarked) [A(139), N-{2-[4-(2-{2-cyclopentyl-5-[(5,7-dimethyl[1,2,4]triazolo[1,5-a]pyrimidin-2-yl)methyl]-4-hydroxy-6-oxo-3,6-dihydro-2H-pyran-2-yl}ethyl)-2-ethylphenoxy]ethyl}acetamide], the IC50 is reported as 2 nM. `CCc1cc(CCC2(C3CCCC3)CC(O)=C(Cc3nc[nH]c3C)C(=O)O2)ccc1O` (centres unmarked) [B(110), 6-Cyclopentyl-6-[2-(3-ethyl-4-hydroxy-phenyl)-ethyl]-4-hydroxy-3-(5-methyl-1H-imidazol-4-ylmethyl)-5,6-dihydro-pyran-2-one] was tested, and the IC50 was 107 nM. Compound `COc1ccc(CCC2(C3CCCC3)CC(O)=C(Sc3nc4ncnc(O)c4[nH]3)C(=O)O2)cc1Cl` (centres unmarked) [C(91), 3 6-[2-(3-chlor-4-methoxyphenyl)ethyl]-6-cyclopentyl-4-hydroxy-3-[(6-hydroxy-7H-purin-8-yl)thio]-5,6-dihydro-2H-pyran-2-one] has an IC50 of 40 nM. With `CCCOc1ccc(CCC2(C3CCCC3)CC(=O)CC(=O)O2)cc1` (centres unmarked) [A(60), 6-Cyclopentyl-6-[2-(4-propoxy-phenyl)-ethyl]-dihydro-pyran-2,4-dione] the IC50 was 8700 nM. `CC(=O)c1ccc(CCC2(C3CCCC3)CC(=O)CC(=O)O2)s1` (centres unmarked) [A(84), 6-[2-(5-Acetyl-thiophen-2-yl)-ethyl]-6-cyclopentyl-dihydro-pyran-2,4-dione] was tested, and the IC50 was 6800 nM. For `CCc1ccc(O)c(CCC2(C3CCCC3)CC(O)=C(Cc3nc4ncc(C)cn4n3)C(=O)O2)c1` (centres unmarked) [A(173), 6-Cyclopentyl-6-[2-(5-ethyl-2-hydroxy-phenyl)-ethyl]-4-hydroxy-3-(6-methyl-[1,2,4]triazolo[1,5-a]pyrimidin-2-ylmethyl)-5,6-dihydro-pyran-2-one], the IC50 was 4 nM.
